This passage reports melting point results from a melting point compilation (Tetko et al.; mined from patent text by program, amines drawn as free bases though some values may be those of a salt).

Structures are written as SMILES.

Regarding `CCCCNc1cc(Cl)nnc1NN`, the melting point – broadly, the temperature of the solid-liquid transition – is 170 to 172 °C. As for `COc1ccc(Cl)cc1-c1c(N)c(=O)[nH]c2c(C(F)(F)F)cccc12`, the figure is 265 to 266 °C; as for `COc1ccc(-c2cc(C=O)c3occc3c2)cc1`, 94 to 95 °C. In turn, `O=[N+]([O-])c1ccc(Sc2ncc(Cl)cn2)s1` showed a melting point of 141 to 143 °C. With `COc1cc(Cl)cc(Cn2c(=O)cc(C(F)(F)F)n(C)c2=O)c1Cl`, the melting point fell in the range of 117 to 123 °C. In turn, `CN(Sc1ccccc1[N+](=O)[O-])C(=O)Nc1ccc(Cl)cc1` displayed a melting point of 157 to 158 °C. Molecule `NCCc1cccc(N2CCN(c3ccc(CCC(=O)O)cc3)C2=O)c1` gave a melting point of over 250 °C. `C[C@@H](NC(=O)c1c[nH]c2ncc(-c3nn(C)c4c(F)c(F)ccc34)nc12)C(=O)N1CC(C#N)C1`: the melting point was in the range of 240 to 250 °C. `Cc1cccc2[nH]c(C=O)cc12` yielded a melting point of 147 to 149 °C. In the case of `CNC(=O)N(C)c1nc(CC(=O)Nc2nnc(C(C)(C)C)s2)cs1` it was 175 to 177 °C; in that of `CCCc1cc(=O)oc2cc(O)c3c(c12)OC(C)(C)C=C3`, 190 to 192 °C; in that of `CN1C(=O)N(CC(COc2ccc(-c3ccncc3)cc2)N(O)C=O)C(=O)C1(C)C` (configuration not stated), 217 to 218 °C. Regarding `Cc1oc(-c2ccccc2)nc1COc1ccc(Cn2cc(CCC(=O)O)c(O)n2)cc1`, the melting point is 197 to 198 °C.

Molecule `O=c1cnc(-c2cccc(Cc3ccccc3)c2)nn1CC(F)(F)F` displayed a melting point of 95 to 96 °C. `COC(=O)CCCCCCCCCCCCC1=C(C)C(=O)C(OC)=C(OC)C1=O` displayed a melting point of 54 °C. As to `Cc1ccc(S(=O)(=O)NC(=O)N2CCN(C(=O)c3ccc(Nc4ccnc5cc(C(F)(F)F)ccc45)cc3)CC2)cc1`, the melting point lay within 253 to 255 °C. For the molecule `CCCSc1ncc(C(=O)O)n1Cc1ccccc1Cl`, the melting point lay in the range of 158 to 160 °C. With `CC(C)(C)NCC(O)c1cc(O)ccc1Cl` (configuration not stated), the melting point lay within 162 to 163 °C.

Molecule `N#Cc1c(NCCCN2CCCC2)ncc2c1-c1ccccc1C(c1ccc(Cl)c(Cl)c1)C2` (configuration not stated) returned a melting point of 104 to 110 °C. As to `COc1cc(OC)c2c(=O)[nH]c(-c3cccc(N4CCN(C(C)CO)CC4)n3)nc2c1` (configuration not stated), the melting point lay in the range of 202 to 204 °C. As for `COC(C1=CN(C)CS1)c1ccccc1COc1cc(Cl)ccc1Cl` (configuration not stated), the figure is 78.5 to 79.5 °C; as for `CC(C)(C)CC(C)(C)c1ccc(OCC(=O)Nc2ccc(Cl)c(Nc3cc(=O)n(-c4c(Cl)cc(Cl)cc4Cl)[nH]3)c2)cc1`, 126 to 128 °C. As for `N#CCCN(N)c1nc2cccc(Cl)c2o1`, the melting point lay within 114 to 115 °C. For the molecule `CSCCOc1ccc(OCC(O)CO)cc1` (configuration not stated), the melting point is 59 to 61 °C. Turning to `O=C(O)CC(CO)C(=O)c1ccc(Cl)c([N+](=O)[O-])c1` (configuration not stated), the melting point is 210 to 213 °C.

In turn, `CC[C@H]1c2cccn2-c2cc(F)c(F)cc2N1S(=O)(=O)c1ccc(O)c(C)c1` displayed a melting point of 161 to 163 °C. Molecule `Cc1c(-c2cccc(C(F)(F)F)c2F)c2cccc(Cl)c2n1CCCNS(C)(=O)=O` yielded a melting point of 168 °C. In turn, `Cc1ccsc1CNC(=O)C(=O)NCCc1ccccn1` yielded a melting point of 122 to 124 °C. Regarding `COc1ccc(Nc2ncnc(NCc3ccco3)n2)cc1`, the melting point is 184 to 186 °C. `CN1CC(CN)c2c[nH]c3cccc(c23)C1=O` (configuration not stated) had a melting point of 85 to 87 °C. Consider `CCn1c(C(C)C)cc(-c2ccc(F)cc2)c1-c1ccccc1`, for which the melting point came out at 110 °C. In turn, `C(=C\c1nc(COc2ccc(CCn3cncn3)cc2)co1)/c1ccccc1` came in with a melting point of 136 to 137 °C.

For the molecule `COc1ccc(CNc2nc(OCc3ccccn3)ncc2C(=O)c2cc(OC)c(OC)c(OC)c2)cc1Cl`, the melting point amounted to 129 °C. In turn, `CS(=O)(=O)c1cccc(NC(=O)c2cnn3c(C(F)F)cc(-c4ccc(C(F)(F)F)c(F)c4)nc23)c1` came in with a melting point of 238 °C. Regarding `O=C(Cn1cnc2ccccc21)Nc1ccc(-n2nc(C3CC3)cc2C2CC2)cc1`, the melting point is 230 to 235 °C.

Turning to `CNC(=O)c1cc2c(Oc3ccc(/C=C/C(=O)NCC(O)CO)cc3)cncc2s1` (configuration not stated), the melting point fell in the range of 225 to 226 °C. Take `COc1cc(C(F)(F)F)cnc1O`: the melting point lay within 115 to 117 °C. In the case of `CC(=O)Nc1c(C)cccc1CCC(=O)O` it was 110 °C; in that of `CCCCc1nc(=O)c2cc(C(O)c3ccco3)ccc2[nH]1` (configuration not stated), 183 to 185 °C; in that of `CC(C)n1cnc2nc(-c3ccc(Cl)cc3)nn2c1=S`, 230 to 232 °C. `NC1CCn2c1nc1cc(NC(=O)c3cc4cc(F)ccc4n3Cc3cccc(F)c3)cnc12` (configuration not stated) showed a melting point of 218 to 220 °C.

Molecule `O=S1NC=Cc2ccccc21` (configuration not stated) returned a melting point of 198 to 200 °C. With `Cc1cccc(C(N)=O)c1SSc1c(C)cccc1C(N)=O`, the melting point lay in the range of 189 to 190 °C.

`COc1c(N2C[C@@H](N)[C@@H](C)C2)c(F)cc2c(=O)c(C(=O)O)cn(C3CC3)c12` (relative stereo) came in with a melting point of 192 to 194 °C. On to `CC(C)(C)OC(=O)c1cnc(NC(=O)[C@H](CC2CCCC2)c2ccc(S(C)(=O)=O)c(Cl)c2)cn1`, for which the melting point fell in the range of 121 to 127 °C.

As to `O=C(CC1CCCC1)Nc1c(C(O)(C(F)(F)F)C(F)(F)F)ccc2ccccc12`, the melting point lay in the range of 144 to 145 °C. Regarding `CCOC(=O)c1cn2c3c(c(-c4cc(C)nc(C)c4)c(F)c(F)c3c1=O)OC[C@@H]2C`, the melting point lay in the range of 295 to 297 °C.

`CN1CCN(c2ccc(C(=O)NCCCCCCCCCCCCO[N+](=O)[O-])cn2)CC1`: the melting point lay in the range of 74 to 76 °C. Turning to `O=C1N(Cc2ccc(O)cc2)c2ccccc2C12COc1cc3c(cc12)CCO3` (configuration not stated), the melting point lay in the range of 226 to 227 °C. `COc1cc(/C=C/C(=O)Nc2ccccc2C(=O)O)ccc1OC1CCCC1` registered a melting point of 96 to 98 °C.

Consider `CC(C)(C)OC(=O)N1CCN(c2ccnc3sc(C(N)=O)c(N)c23)CC1`, for which the melting point was in the range of 198 to 203 °C. Regarding `O=C(O)c1cc(-c2ccc3c(c2)CCO3)nn(CC2CC2)c1=O`, the melting point was in the range of 160 to 165 °C. On to `N=C(Nc1cccc(NC(=O)/C=C/c2ccccc2C(F)(F)F)c1)c1ccccc1`, for which the melting point is 82 to 84 °C. `O=C(O)C(Cl)(Cl)CCCCCCCCCCCCBr` registered a melting point of 59 to 60 °C.

Regarding `O=C(CN1CCN(c2ccccc2)CC1)N1CCC(C(=O)N2CCC2)(c2cccc(C(F)(F)F)c2)CC1`, the melting point is 147 to 149 °C. As for `Oc1ccc(C2(c3cccc(O)c3)c3ccccc3-c3ccccc32)cc1`, the figure is 221 °C. `FC(F)(F)c1cccc(N=C2SCCN2C(=S)Nc2cccc(C(F)(F)F)c2)c1`: the melting point was in the range of 116 to 117 °C. `O=S(=O)(NC1CC1)c1cccc(-c2cc(-c3nc(-c4ccc(C(F)(F)F)cc4)cc(C(F)(F)F)n3)ccn2)c1`: the melting point was determined as 196 °C. In turn, `CCOC(=O)N1CC[C@H](NC(=O)c2cc(N)c(Cl)cc2OC)[C@H](OC)C1` (relative stereo) gave a melting point of 142 °C.

In the case of `O=C(NCCCN1CCN(c2ccc(F)cc2OCC(F)(F)F)CC1)c1conc1-c1ccc(F)cc1`, the melting point was in the range of 122 to 123 °C. `CC(=N)NCCCCCCCCCCCCNC(C)=N` displayed a melting point of 92 to 97 °C.

In turn, `CCNC(=O)c1ccc(C2(C(N)=O)CN(C(=O)OC(C)(C)C)CCc3c2cc(CC)c(CC)c3Cl)cc1` (configuration not stated) displayed a melting point of 89 to 95 °C. On to `CCOC(=O)c1ccc2nc(N)oc2c1`, for which the melting point was in the range of 211 to 212 °C. Take `Clc1ccc(CCNc2ccc3ccc(NCCc4ccc(Cl)cc4)nc3c2)cc1`: the melting point is 55 to 60 °C. In turn, `CCOc1ccc([N+](=O)[O-])cc1NC(C)=O` showed a melting point of 195 to 198 °C. As for `Cc1cc(-c2nc3cccnn3c2-c2ccnc(NC(=O)c3ccccc3C)c2)ccc1F`, the melting point lay in the range of 265 to 266 °C.

`O=C1c2ccccc2C(=O)N1Cc1noc(-c2ncn3c2[C@@H]2CCN2C(=O)c2ccccc2-3)n1`: the melting point lay in the range of 290 to 292 °C. As for `CCOC(=O)CCC1(CCC(=O)OCC)CCC(=O)N1`, the figure is 44 to 46 °C; as for `OCC1CC(n2c(N3CCC3)nc3cc(Cl)c(Cl)cc32)C(O)C1O` (configuration not stated), 221 to 222 °C; as for `COc1ccc(CC#N)c(Cl)c1Cl`, 118 to 119 °C. In turn, `O=C(O)c1ccc(C(=O)/C=C/c2ccc(-c3cccs3)cc2F)cc1` came in with a melting point of over 260 °C.

In turn, `O=C(NCc1ccc(Cl)cc1)c1cnc2ccc(Br)cc2c1O` showed a melting point of 282 to 283 °C. As to `N#CSc1c(C(F)(F)F)nn(-c2c(Cl)cc(C(F)(F)F)cc2Cl)c1N`, the melting point fell in the range of 49 to 50 °C.

In the case of `Fc1cccc2c1C1=NCCN1C(Cl)=N2`, the melting point lay in the range of 281 to 285 °C. `O=C1c2ccccc2C(=O)N1Cc1ccccc1-c1noc2ccccc12` yielded a melting point of 142 °C. The molecule `O=c1c(N2CCN(c3ccncc3)CC2)cn(Cc2ccccc2)c2cc(O)ccc12` registered a melting point of 141 to 146 °C. `CC(C)c1cc(C(C)C)n(-c2ccc(NC(=O)c3cccnc3)cc2)n1` yielded a melting point of 190 to 192 °C. As for `Cc1nc(C)c(C(=O)O)c(-c2ccccc2F)c1C(=O)O`, the melting point is over 285 °C. In turn, `CC(C)(C)c1cc(C=O)cc(I)c1O` came in with a melting point of 124 °C. For `N#CCc1ccccc1-c1ccc(C(=O)N2Cc3ccc(C(=O)NCc4cccnc4)n3Cc3ccccc32)cc1`, the melting point lay in the range of 105 to 108 °C. In turn, `C[C@H](Nc1nc(N=[N+]=[N-])nc(Cl)c1-c1c(F)cc(F)cc1F)C(F)(F)F` gave a melting point of 152 to 154 °C. As for `COc1ccc(COc2ccc(CSc3ccc(OCC(=O)O)c(C)c3)cc2)cc1`, the figure is 150 to 152 °C; as for `N#CC=C1CCN(c2ccc(N3C[C@H](CNC(=O)CBr)OC3=O)cc2F)CC1`, 160 to 162 °C. `CCC(=O)CN1C(=O)C2(COc3cc4c(cc32)OCCO4)c2ccccc21` (configuration not stated) had a melting point of 182 to 183 °C. In the case of `Cc1nc(-c2ccc(OC(F)(F)F)cc2)sc1C(=O)O` it was 179 to 181 °C.

`CC1(C)CC(=O)c2c(-c3ccccc3)sc(-c3nccs3)c2C1` came in with a melting point of 141 to 143 °C.

The molecule `CCN1c2ncc(OCc3ccccc3)cc2C(=O)N(C)c2ccc(Cl)nc21` returned a melting point of 159 to 160 °C.
